Assay: osmotic coefficient (dimensionless); mn = molality of the nth substance listed, in mol/kg
Conditions: 308.15 K, Liquid, omometer

O=C[C@H](O)[C@H](O)[C@H](O)CO [D-ribose] + O
Conditions	osmotic coefficient
m1 = 0.0338	0.9992
m1 = 0.0672	0.988
m1 = 0.1353	0.9826
m1 = 0.2041	0.9786
m1 = 0.2789	0.9769
m1 = 0.3505	0.9753
m1 = 0.4242	0.9745
m1 = 0.499	0.9743
m1 = 0.5801	0.9736
m1 = 0.6538	0.9734
m1 = 0.7165	0.973
m1 = 0.7426	0.9732
m1 = 0.8289	0.973
m1 = 0.9054	0.9732
m1 = 1.038	0.9735
m1 = 1.183	0.9735
m1 = 1.453	0.9745
m1 = 1.988	0.9774
m1 = 2.594	0.9857
m1 = 3.266	0.9944

OC[C@@H](O)[C@@H](O)[C@H](O)[C@@H](O)CO [D-sorbitol] + O
Conditions	osmotic coefficient
m1 = 0.0278	0.9979
m1 = 0.0558	1.001
m1 = 0.111	0.9992
m1 = 0.1676	1.003
m1 = 0.2296	1.002
m1 = 0.2892	1.004
m1 = 0.3523	1.003
m1 = 0.4124	1.004
m1 = 0.4781	1.003
m1 = 0.5436	1.003
m1 = 0.6109	1.003
m1 = 0.6764	1.003
m1 = 0.7778	1.003
m1 = 0.8812	1.004
m1 = 0.9996	1.004
m1 = 1.112	1.006
m1 = 1.284	1.008
m1 = 1.723	1.013
m1 = 2.342	1.027
m1 = 2.956	1.041
m1 = 3.645	1.057

OC[C@H]1O[C@@](CO)(O[C@H]2O[C@H](CO)[C@@H](O)[C@H](O)[C@H]2O)[C@@H](O)[C@@H]1O [D-sucrose] + O
Conditions	osmotic coefficient
m1 = 0.0296	0.9997
m1 = 0.0581	1.001
m1 = 0.0904	1.008
m1 = 0.1209	1.013
m1 = 0.1534	1.017
m1 = 0.1988	1.019
m1 = 0.2535	1.025
m1 = 0.3157	1.028
m1 = 0.3938	1.032
m1 = 0.477	1.035
m1 = 0.5567	1.039
m1 = 0.5822	1.04
m1 = 0.648	1.042
m1 = 0.7265	1.047
m1 = 0.8492	1.053
m1 = 0.971	1.058
m1 = 1.087	1.065
m1 = 1.186	1.067
m1 = 1.275	1.074
m1 = 1.996	1.149
m1 = 2.679	1.202
m1 = 3.412	1.248
m1 = 3.927	1.276

O=C[C@H](O)[C@@H](O)[C@H](O)CO [D-xylose] + O
Conditions	osmotic coefficient
m1 = 5.333	1.007
m1 = 5.362	1.002
m1 = 5.4	0.9966
m1 = 5.435	0.9919
m1 = 5.468	0.9881
m1 = 5.502	0.987
m1 = 5.516	0.9868
m1 = 5.53	0.9859
m1 = 5.542	0.9858
m1 = 5.551	0.9857
m1 = 5.559	0.9852
m1 = 5.566	0.9853
m1 = 5.574	0.985
m1 = 5.582	0.9853
m1 = 5.59	0.9852
m1 = 5.598	0.9866
m1 = 5.604	0.9869
m1 = 5.611	0.9874
m1 = 5.619	0.9894
m1 = 5.625	0.997

O=C[C@H](O)[C@@H](O)[C@@H](O)CO [L-arabinose] + O
Conditions	osmotic coefficient
m1 = 0.0332	0.9993
m1 = 0.0672	0.9973
m1 = 0.1346	0.9965
m1 = 0.2071	0.995
m1 = 0.2766	0.9956
m1 = 0.3435	0.9951
m1 = 0.4151	0.9944
m1 = 0.4952	0.9947
m1 = 0.5785	0.9949
m1 = 0.6498	0.9944
m1 = 0.8204	0.9948
m1 = 0.9055	0.9945
m1 = 1.041	0.9945
m1 = 1.177	0.9944
m1 = 1.313	0.9942
m1 = 1.659	0.995
m1 = 2.402	1.002
m1 = 3.272	1.016

OC[C@@H](O)[C@H](O)[C@@H](O)CO [xylitol] + O
Conditions	osmotic coefficient
m1 = 0.0663	1.002
m1 = 0.1332	1.002
m1 = 0.2029	1.002
m1 = 0.2718	1.002
m1 = 0.3466	1.003
m1 = 0.4199	1.004
m1 = 0.495	1.005
m1 = 0.5643	1.005
m1 = 0.6343	1.005
m1 = 0.7296	1.006
m1 = 0.792	1.007
m1 = 0.8908	1.008
m1 = 0.9999	1.011
m1 = 1.143	1.012
m1 = 1.297	1.015
m1 = 1.474	1.017
m1 = 2.027	1.026
m1 = 2.646	1.036
m1 = 3.289	1.042
m1 = 4.413	1.048

Source: the NIST ThermoML archive (doi:10.1016/j.fluid.2016.02.030)
